Results from patent US20160271153A1, “Novel Methods For The Treatment Of Cardiac Arrhythmias” (United States Government as Represented by The Department …, priority 2013, published 2016).
Residue numbers refer to the chain shown, from its start. Entries after “also recorded” stand apart in the source; their conditions may differ.

Assays:
[1] = tested on: Cav1-cSrc binding; assay: Co-immunoprecipitation in HEK cells co-transfected with mouse cSrc and Cav1; format: cell-based; conditions: 10 min
Description: (§1) Immunoprecipitation (IP) of Cav1 was conducted using a magnetic IP kit from Thermo Scientific (Waltham, Mass.). Protein lysates from total LV or isolated LV myocytes (with 1000 μg total protein) from control and ACES/8 mice were incubated with 10 μg of mouse anti-Cav1 monoclonal antibodies overnight at 4° C.
(§2) The immune complex was bound to protein A/G magnetic beads and collected with a magnetic stand. Proteins co-immunoprecipitated with Cav1 were eluted and subjected to gel electrophoresis and Western blotting using the antibodies described above where appropriate. The amount of proteins co-immunoprecipitated with Cav1 was normalized to total Cav1 co-immunoprecipitated in each sample. Similar methods were used to analyze the proteins that co-immunoprecipitated with Cav3 and cSrc using antibodies against Cav3 (mouse monoclonal, BD Biosciences, San Jose, Calif.) or cSrc (rabbit monoclonal, Cell Signaling Technology, Danvers, Mass.).
(§3) Transfection of HEK cells with designated plasmids was conducted using Lipofectamine 2000 according to manufacturer's protocol.
To test if increased Cav1 SNO could result in Cav1-cSrc dissociation, human embryonic kidney (HEK) cells transfected with mouse Cav1 and cSrc were treated with 20 μM nitric oxide (NO) donor S-nitroso-N-acetyl-DL-penicillamine (SNAP) or vehicle for 10 min.

[2] = target: T1, WT mouse Cav1 (Mus musculus, UniProt P49817); assay: Biotin-switch assay for Cav1 S-nitrosation in transfected HEK cells, WT Cav1; format: cell-based; conditions: SNAP 20 μM, 10 min
T1 construct: A full-length mouse Cav1 cDNA clone in pCMV-SPORT6 vector; host or cells: HEK cells
T1 sequence (P49817 1-178): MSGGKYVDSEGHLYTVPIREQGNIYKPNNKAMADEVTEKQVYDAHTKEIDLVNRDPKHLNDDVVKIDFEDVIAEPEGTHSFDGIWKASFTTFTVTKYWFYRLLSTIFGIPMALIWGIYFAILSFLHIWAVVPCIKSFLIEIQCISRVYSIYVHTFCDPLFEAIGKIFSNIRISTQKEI
Description: as §3
S-nitrosated Cav1 was detected in cells (isolated ventricular cardiomyocytes from control and ACES/8 mice or HEK cells transfected with WT Cav1 or Cav1 mutants [C156S, C143S or C133S], with or without NO donor, SNAP [20 μM, 10 min], treatment) using the methods described in Jaffrey et al., Protein S-nitrosylation: a physiological signal for neuronal nitric oxide, Nat Cell Biol. 2001, 3:193-197; and Haendeler et al., Redox regulatory and anti-apoptotic functions of thioredoxin depend on S-nitrosylation at cysteine 69, Nat Cell Biol. 2002, 4:743-749.
Cells were lysed with HENS buffer (25 mM HEPES, pH 7.7, 0.1 mM EDTA, 0.01 mM neocuproine and 1% SDS) and centrifuged at 20,000 g for 15 min. The total cell protein was incubated in 20 mM methylmethanthiosulphate (MMTS) for 20 min at 50° C. and vortexed for 5 s every 2 min. Cellular protein was precipitated with acetone.
After removing acetone, protein pellet was resuspended in HENS buffer. […] Cav1 was then immunoprecipitated from each sample using monoclonal Cav1 antibody (BD Biosciences, San Jose, Calif.), where S-nitrosated Cav1 was detected by HRP-conjugated streptavidin following gel electrophoresis and Western blotting. The amount of S-nitrosated Cav1 was quantified and normalized to total Cav1 in each sample

[3] = target: T2, C133S Cav1 (Mus musculus, UniProt P49817, C133S); assay: Biotin-switch assay for Cav1 S-nitrosation in transfected HEK cells, C133S Cav1; format: cell-based; conditions: SNAP 20 μM, 10 min
T2 construct: A full-length mouse Cav1 cDNA clone in pCMV-SPORT6 vector; expressed in transfected cells; host or cells: HEK cells
T2 sequence (P49817 1-178 C133S): T1 sequence (P49817 1-178) with C133S
Description: (§4) A full-length mouse Cav1 cDNA clone in pCMV-SPORT6 vector was acquired from Thermo Scientific (MGC mouse Cav1 cDNA, clone ID 4484857). The cysteine-to-serine Cav1 mutants (C133S, C143S and C156S) were generated from this WT mouse Cav1 clone using the QuickChange II Site-Directed Mutagenesis kit (Agilent Technologies) according to the manufacturer's instructions.
as §3
(§5) S-nitrosated Cav1 was detected in cells (isolated ventricular cardiomyocytes from control and ACES/8 mice or HEK cells transfected with WT Cav1 or Cav1 mutants [C156S, C143S or C133S], with or without NO donor, SNAP [20 μM, 10 min], treatment) using the methods described in Jaffrey et al., Protein S-nitrosylation: a physiological signal for neuronal nitric oxide, Nat Cell Biol. 2001, 3:193-197; and Haendeler et al., Redox regulatory and anti-apoptotic functions of thioredoxin depend on S-nitrosylation at cysteine 69, Nat Cell Biol. 2002, 4:743-749. […]
(§6) After removing acetone, protein pellet was resuspended in HENS buffer. […] Cav1 was then immunoprecipitated from each sample using monoclonal Cav1 antibody (BD Biosciences, San Jose, Calif.), where S-nitrosated Cav1 was detected by HRP-conjugated streptavidin following gel electrophoresis and Western blotting. […]

[4] = target: T3, C143S Cav1 (Mus musculus, UniProt P49817, C143S); assay: Biotin-switch assay for Cav1 S-nitrosation in transfected HEK cells, C143S Cav1; format: cell-based; conditions: SNAP 20 μM, 10 min
T3 construct: A full-length mouse Cav1 cDNA clone in pCMV-SPORT6 vector; expressed in transfected cells; host or cells: HEK cells
T3 sequence (P49817 1-178 C143S): T1 sequence (P49817 1-178) with C143S
Description: as §4, §3, §5, §6

[5] = target: T4, C156S Cav1 (Mus musculus, UniProt P49817, C156S); assay: Biotin-switch assay for Cav1 S-nitrosation in transfected HEK cells, C156S Cav1; format: cell-based; conditions: SNAP 20 μM, 10 min
T4 construct: A full-length mouse Cav1 cDNA clone in pCMV-SPORT6 vector; expressed in transfected cells; host or cells: HEK cells
T4 sequence (P49817 1-178 C156S): T1 sequence (P49817 1-178) with C156S
Description: as §4, §3, §5, §6

[6] = tested on: p-cSrc at Tyr416; assay: Western blot of LV protein lysates, p-cSrc; format: in vivo, mouse
Description: (§7) For Western blots, total protein lysates were prepared from the LV of 6 week-old WT control, ACE8/8 with and without 2 week treatment of mitochondria-targeted antioxidant (2-(2,2,6,6-Tetra-methylpiperidin-1-oxyl-4-ylamino)-2-oxoethyl)-triphenylphosphonium chloride (MitoTEMPO, see below), as well as from adult (2-4 month) Cav1−/− mice with and without 4 weeks treatment of cSrc inhibitor 1-(1,1-dimethylethyl)-[…]-1H-pyrazolo[3,4-d]pyrimidin-4-amine (PP1, see below).
(§8) In some cases, protein lysates were prepared from the LV cardiomyocytes isolated from ACE8/8 animals using described methods. 13 Total protein lysates were fractionated on 8-15% SDS-PAGE and transferred to PVDF membranes, incubated in 5% skim milk in PBS containing 0.1% Tween 20 (blocking buffer) for 1 h at room temperature, followed by overnight incubation at 4° C. with primary antibodies (rabbit monoclonal anti-cSrc, p-cSrc at Tyr416, Cx43, C-terminal Src kinase [CSK] and Tyr14 p-Cav1 antibodies from Cell Signaling, mouse monoclonal anti-Cav1 and Cav3 antibodies from BD Biosciences, rabbit monoclonal anti-eNOS, p-eNOS and nNOS antibodies from Santa Cruz).
(§9) For a loading control, the membranes were blotted with primary antibodies against glyceraldehydes-3-phosphate dehydrogenase (GAPDH) (Santa Cruz Biotech, Santa Cruz, Calif.). After washing, the membranes were incubated for 1 h at room temperature with alkaline phosphatase-conjugated secondary antibody diluted in blocking buffer, and bound antibodies were detected using a chemiluminescent alkaline phosphate substrate. Protein band intensities were quantified by densitometry (Quantity One Basic, Bio-Rad Laboratory, Hercules, Calif.) and the band densities of each protein in individual samples were normalized to that of GAPDH in the same sample.

[7] = tested on: Cx43; assay: Western blot of LV protein lysates, Cx43; format: in vivo, mouse
Description: as §7, §8, §9

[8] = tested on: Cav1-eNOS interaction; assay: Co-immunoprecipitation with Cav1 in ACE8/8 LV, eNOS; format: in vivo, mouse; conditions: ACE8/8 mice, MitoTEMPO 0.7 mg/kg/day i.p. for 2 weeks, n=6
Description: as §1, §2

[9] = tested on: Cav1-cSrc binding; assay: Co-immunoprecipitation with Cav1 in ACE8/8 LV, cSrc; format: in vivo, mouse; conditions: ACE8/8 mice, MitoTEMPO 0.7 mg/kg/day i.p. for 2 weeks, n=6
Description: as §1, §2

[10] = tested on: ACE8/8 mice; conditions: cited from earlier work
[11] = tested on: Cav1−/− mice; assay: LV epicardial conduction velocity measurement (72-electrode Flex-MEA); format: in vivo, mouse
Description: LV conduction velocity was measured in anesthetized WT (n=6) and Cav1−/− (with and without 4 week PP1 treatment, n=6 in each group) mice using a flexible multielectrode array (Flex-MEA, 72 electrodes) system (Multichannel systems, Reutlingen, Germany) according to manufacturer's instructions.
Mid-anterior LV epicardial electrical propagation was recorded under right-ventricular pacing (750 bpm); the color mapping of LV conduction propagation, as well as the calculation of LV conduction velocity, were carried out using Cardio 2D software (Multichannel systems, Reutlingen, Germany)

[12] = tested on: Cav1−/− mice; assay: Programmed ventricular stimulation, ventricular arrhythmia inducibility; format: in vivo, mouse; conditions: 4 weeks of PP1, n=6, untreated Cav1−/− 75% inducible
Description: Surface electrocardiograms (ECG) were recorded and ventricular arrhythmia inducibility was determined in WT and Cav1^−/− with and without 4 weeks of PP1 treatment (n=4-6 in each group) using described methods under general anesthesia with isofurane as described in Berul et al., In vivo cardiac electrophysiology studies in the mouse, Circulation 1996, 94:2641-2648.
Surface electrocardiograms (ECG) were monitored and recorded with needle electrodes connected to a dual bioamplifier (PowerLab 26T, AD Instruments, Dunedin, New Zealand) as described in Yang et al., Exercise training and PI3Kα-induced electrical remodeling is independent of cellular hypertrophy and Akt signaling, J Mol Cell Cardiol. 2012, 53:532-541.
Programmed ventricular stimulation was performed with a RV epicardial electrode connected to STG1008 stimulator (Multichannel systems, Reutlingen, Germany), where eight consecutive beats were paced at 60 ms basic cycle length, followed by triple extrastimuli with incrementally deceasing cycle lengths between 20-55 ms, and inducible ventricular tachycardia was defined as >3 consecutive ventricular beats. See, Bevilacqua et al., A targeted disruption in connexin40 leads to distinct atrioventricular conduction defects, J Interv Card Electrophysiol. 2000, 4:459-467.

[13] = ACE8/8 mice, MitoTEMPO 0.7 mg/kg/day i.p. for 2 weeks
[14] = ACE8/8 mice, MitoTEMPO 0.7 mg/kg/day i.p. for 2 weeks, n=6
[15] = Cav1−/− mice, PP1 1.5 mg/kg/dose i.p. 3 times per week for 4 weeks, n=6, 1.5 mg/kg

SMILES: CC(=O)NC(C(=O)O)C(C)(C)SN=O (racemic) [SNAP, S-nitroso-N-acetyl-DL-penicillamine]
- interaction between cSrc and Cav1 (in words) ([1]; HEK cells co-transfected with mouse cSrc and Cav1, SNAP 20 μM, n=4): reduced
- decrease of Cav1-cSrc binding compared to control ([1]; HEK cells transfected with mouse Cav1 and cSrc, SNAP 20 μM): 58%
- Cav1 SNO (S-nitrosation), WT Cav1 [2]: significantly increased
- Cav1 SNO (S-nitrosation), C133S Cav1 [3]: significantly increased
- Cav1 SNO (S-nitrosation), C143S Cav1 [4]: significantly increased
- Cav1 SNO (S-nitrosation), C156S Cav1 [5]: not

SMILES: CC1(C)CC(NC(=O)C[P+](c2ccccc2)(c2ccccc2)c2ccccc2)CC(C)(C)N1[O] [MitoTEMPO, (2-(2,2,6,6-Tetra-methylpiperidin-1-oxyl-4-ylamino)-2-oxoethyl)-triphenylphosphonium chloride]
- reduction of cardiac cSrc phosphorylation compared to untreated ACE8/8 animals [6, 13]: 63%
- cSrc activation/phosphorylation in ACE8/8 LV (in words) [6, 14]: significantly attenuated
- increase of Cx43 expression compared to untreated ACE8/8 animals [7, 13]: 1.9 fold
- Cx43 downregulation in ACE8/8 LV (in words) [7, 14]: significantly attenuated
- Cav1-eNOS interaction in ACE8/8 LV (in words) [8]: reversed; also recorded: significantly reduced
- Cav1-cSrc binding in ACE8/8 LV (in words) [9]: reversed; also recorded: restored
- elevated mitoROS in ACE8/8 hearts ([10]; MitoTEMPO 0.7 mg/kg/day i.p. for 2 weeks, to levels similar to WT controls): normalizes
- Cx43 expression in ACE8/8 mice ([10]; from Sovari et al. 2013): restores
- gap junction conduction in ACE8/8 mice ([10]; from Sovari et al. 2013): normalizes
- ventricular arrhythmias and sudden cardiac death in ACE8/8 mice ([10]; from Sovari et al. 2013): ameliorates

SMILES: Cc1ccc(-c2nn(C(C)(C)C)c3ncnc(N)c23)cc1 [PP1, 1-(1,1-dimethylethyl)-1-(4-methylphenyl)-1H-pyrazolo[3,4-d]pyrimidin-4-amine]
- LV conduction velocity in Cav1−/− LV (in words) ([11]; 4 weeks of PP1 treatment): normalized
- LV conduction velocity ([11]; PP1 1.5 mg/kg/dose i.p. 3 times per week for 4 weeks, n=6, untreated Cav1−/− 0.35±0.03, WT 0.50±0.09): 0.43±0.01 mm/ms
- inducible for ventricular arrhythmias / VT with programmed stimulation [12]: 0%
- LV p-cSrc expression / cSrc phosphorylation (in words) [6, 15]: normalized; also recorded: prevented
- LV Cx43 expression / Cx43 downregulation (in words) [7, 15]: normalized; also recorded: prevented
